“And” between values parts separate entries of the source, which are not always exact repeats. Equal entries are not always repeated. Structures can show the parent of a compound that is named as a salt. Where two headings read alike, the source gives them in different places.
Assays:
[1] = target: T1, human dopamine transporter (hDAT) (Homo sapiens, UniProt Q01959); assay: biochemical; assay type: binding
[2] = target: T2, human serotonin transporter (hSERT) (Homo sapiens, UniProt P31645); assay: biochemical; conditions: [125I]RTI-55, read-out: SERT binding affinity Ki
[3] = target: T3, human norepinephrine transporter (hNET) (Homo sapiens, UniProt P23975); assay: biochemical; conditions: read-out: NET binding affinity Ki
[4] = target: T1, human dopamine transporter (hDAT); assay: cell-based
[5] = target: T2, human serotonin transporter (hSERT); assay: cell-based
[6] = target: T3, human norepinephrine transporter (hNET); assay: cell-based; conditions: read-out: Reuptake Inhibition [3H]NE IC50
[7] = tested on: male Swiss-Webster mice; assay: Locomotor activity, compound alone, 1-h session; assay type: in vivo, mouse; conditions: for ED50: Mus musculus, ip, 1 h, read-out: ED50, dose producing 1/2 maximal stimulant activity (S, stimulation); for mode of action: ligand alone study; for ME/CME, Maximal Effect/Cocaine Maximal Effect: mouse locomotor activity; for effect on spontaneous LMA: compound alone
Description: (§1) 3. Locomotor Activity. […] Panels of infrared beams (16 beams) and corresponding photodetectors were located in the horizontal direction along the sides of each activity chamber. […] Just prior to placement in the apparatus, all mice received a saline injection IP. In all studies, horizontal activity (interruption of 1 photocell beam) was measured for 1-h within 10-min periods. Testing was conducted with one mouse per activity chamber. […] Plot the mean (±SEM) maximal stimulant activity (total counts in the 30 min period divided by 3) vs dose. Perform a log10 transformation of the 30 min period average counts for individual subjects to homogenize variances for subsequent analyses. […] Fit the 30 min period average counts across subjects to a function of log10 dose using least-squares curve-fitting analyses (i.e. TableCurve software from Jandel). Estimate the maximum effect from the resultant dose-response curve. […] Determine the ED50 (dose that produces ½ maximal stimulant activity) from a linear regression analysis of the ascending portion (up to the dose that produces a maximal effect) of the curve. […] Plot the mean (±SEM) activity (total counts in the 30 min period divided by 3) vs dose. Perform a log10 transformation of the 30 min period average counts for individual subjects to homogenize variances for subsequent analyses. Conduct an ANOVA and contrast (specified a priori) each dose of the test compound to the vehicle to determine significant (p<0.05) dose effects. Conduct a linear least-squares regression analysis; regress the min period average counts across subjects over the descending portion of the curve against the log10 dose of the test compound. […] Perform a log10 transformation of the 30 min period average counts for individual subjects to homogenize variances for subsequent analyses. […] Conduct a linear least-squares regression analysis; regress the 30 min period average counts across subjects over the descending portion of the curve against the log10 dose of the test compound. […] Locomotor Activity 8-hour time course/dose response study. […] A panel of infrared beams (16 beams) and corresponding photodetectors were located in the horizontal direction along the sides of each activity chamber. A 7.5-W incandescent light above each chamber provided dim illumination. Fans provided an 80-dB ambient noise level within the chamber. […] In all studies, horizontal activity (interruption of photocell beams) was measured for 8-h within 10-min periods, beginning at 0800 hrs (2 hours after lights on). Testing was conducted with one mouse per activity chamber. Compound alone study.

[8] = tested on: male Swiss-Webster mice; assay: Cocaine/compound interaction study on locomotor activity; assay type: in vivo, mouse; conditions: for Attenuation of cocaine-induced LMA: 20 mg/kg of cocaine; for AD50, dose attenuating cocaine-induced stimulation by 50%: Table 8, ligand-cocaine interaction study, 20 mg/kg cocaine IP
[9] = tested on: male Swiss-Webster mice; assay: Locomotor activity 8-hour time course/dose response study; conditions: for ED50: Mus musculus, ip, 8 h, read-out: ED50, dose producing 1/2 maximal stimulant activity (S, stimulation)
Description: as §1

[10] = Table 5, [125I]RTI-55, oxalate salts, read-out: DAT binding affinity Ki
[11] = Table 6, read-out: Reuptake Inhibition [3H]DA IC50
[12] = Table 5, [125I]RTI-55, oxalate salts
[13] = Reuptake Inhibition [3H]DA IC50, Table 6
[14] = Reuptake Inhibition [3H]5-HT IC50, Table 6
[15] = Table 8, mouse, IP, ligand alone, 1-h session

T2 sequence (P31645 whole entry): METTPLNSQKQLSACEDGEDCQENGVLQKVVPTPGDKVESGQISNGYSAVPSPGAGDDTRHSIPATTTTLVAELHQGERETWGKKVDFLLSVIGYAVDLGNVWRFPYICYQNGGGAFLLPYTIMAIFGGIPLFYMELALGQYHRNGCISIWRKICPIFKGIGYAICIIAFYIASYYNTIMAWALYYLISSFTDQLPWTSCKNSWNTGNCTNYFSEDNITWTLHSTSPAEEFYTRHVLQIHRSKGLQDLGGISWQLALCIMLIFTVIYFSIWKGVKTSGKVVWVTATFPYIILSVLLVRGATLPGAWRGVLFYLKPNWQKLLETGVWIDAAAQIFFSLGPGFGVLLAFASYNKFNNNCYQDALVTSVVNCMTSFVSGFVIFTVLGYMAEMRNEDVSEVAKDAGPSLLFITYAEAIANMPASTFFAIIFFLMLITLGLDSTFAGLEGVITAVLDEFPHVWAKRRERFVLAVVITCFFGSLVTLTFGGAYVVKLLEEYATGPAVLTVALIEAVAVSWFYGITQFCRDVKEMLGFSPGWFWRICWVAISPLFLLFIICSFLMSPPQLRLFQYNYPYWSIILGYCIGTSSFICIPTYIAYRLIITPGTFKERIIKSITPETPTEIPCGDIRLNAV
T3 sequence (P23975 whole entry): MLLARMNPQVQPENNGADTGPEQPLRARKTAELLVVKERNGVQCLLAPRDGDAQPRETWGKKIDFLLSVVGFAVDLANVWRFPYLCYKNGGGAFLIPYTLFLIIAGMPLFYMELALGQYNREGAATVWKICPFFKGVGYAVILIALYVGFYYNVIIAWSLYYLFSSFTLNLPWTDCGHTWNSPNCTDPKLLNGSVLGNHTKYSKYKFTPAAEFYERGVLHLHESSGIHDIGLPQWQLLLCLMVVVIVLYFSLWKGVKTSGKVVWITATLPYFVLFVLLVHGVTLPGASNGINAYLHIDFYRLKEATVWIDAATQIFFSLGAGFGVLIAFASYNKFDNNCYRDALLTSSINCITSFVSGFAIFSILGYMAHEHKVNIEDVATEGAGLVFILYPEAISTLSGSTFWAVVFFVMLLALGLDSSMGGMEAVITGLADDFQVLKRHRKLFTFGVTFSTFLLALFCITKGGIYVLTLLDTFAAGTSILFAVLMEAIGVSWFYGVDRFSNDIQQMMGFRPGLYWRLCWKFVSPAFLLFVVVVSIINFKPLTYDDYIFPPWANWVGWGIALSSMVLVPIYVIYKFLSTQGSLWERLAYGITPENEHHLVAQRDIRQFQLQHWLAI
T1 sequence (Q01959 whole entry): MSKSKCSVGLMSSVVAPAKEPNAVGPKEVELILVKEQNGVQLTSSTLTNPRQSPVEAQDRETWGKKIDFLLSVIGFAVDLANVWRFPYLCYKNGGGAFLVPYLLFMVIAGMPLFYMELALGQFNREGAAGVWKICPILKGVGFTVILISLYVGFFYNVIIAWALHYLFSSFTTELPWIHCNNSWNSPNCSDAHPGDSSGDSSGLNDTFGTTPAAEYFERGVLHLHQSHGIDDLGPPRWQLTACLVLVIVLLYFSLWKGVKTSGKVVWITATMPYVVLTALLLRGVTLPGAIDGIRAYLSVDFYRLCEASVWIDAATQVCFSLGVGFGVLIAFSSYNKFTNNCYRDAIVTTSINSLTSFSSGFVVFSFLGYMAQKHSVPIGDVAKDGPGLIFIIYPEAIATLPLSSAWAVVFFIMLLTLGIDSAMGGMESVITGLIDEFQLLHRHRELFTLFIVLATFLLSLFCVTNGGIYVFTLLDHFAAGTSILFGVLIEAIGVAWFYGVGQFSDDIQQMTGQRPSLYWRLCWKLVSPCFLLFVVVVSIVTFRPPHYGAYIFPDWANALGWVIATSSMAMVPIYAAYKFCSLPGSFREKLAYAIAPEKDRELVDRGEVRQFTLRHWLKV

SMILES	Ki [1]	Binding Ratios NET/DAT ([1]; Table 5)	Binding Ratios SERT/DAT ([1]; Table 5)	Ki ([2]; Table 5, oxalate salts)	Discrimination Ratios (DR) [3H]DA reuptake/DAT binding ([4]; Table 6)	Ki [3, 12]	IC50 [4, 13]	IC50 [5, 14]	IC50 ([6]; Table 6)	other results
O=C1CN(CCCCOC(c2ccc(F)cc2)c2ccc(F)cc2)CCN1 (as salt: oxalate) [Compound 27, 2-Oxo-4-[4-[bis(4-fluorophenyl)methoxy]butyl]piperazine]	–	–	–	–	–	–	–	–	–	melting point: 120 to 123 °C
Fc1ccc(C(OCCCCN2CCN(c3ccccc3)CC2)c2ccc(F)cc2)cc1 (as salt: oxalate) [Compound 29, 1-Phenyl-4-[4-[bis(4-fluorophenyl)methoxy]butyl]piperazine]	–	–	–	–	–	–	–	–	–	melting point: 185 to 187 °C
Fc1ccc(C(OCCCCN2CCN(c3ccccc3F)CC2)c2ccc(F)cc2)cc1 (as salt: oxalate) [Compound 30, 1-(2-Fluorophenyl)-4-[4-[bis(4-fluorophenyl)methoxy]butyl]piperazine]	–	–	–	–	–	–	–	–	–	melting point: 156 to 158 °C
O=C(NCc1ccc(F)cc1)NC1CCN(CCCCOC(c2ccc(F)cc2)c2ccc(F)cc2)CC1 [Compound 18]	0.0017 µM	–	–	–	–	–	–	–	–	Binding Ratios NET/DAT ([1]; Table 3): 25.3; Binding Ratios SERT/DAT ([1]; Table 3): 121; Ki ([2]; Table 3): 0.206 ± 0.037 µM; Ki ([3]; Table 3, [125I]RTI-55): 0.043 µM; IC50 ([4]; Reuptake Inhibition [3H]DA IC50, Table 3-1): 1.05 ± 0.291 µM; Discrimination Ratios [3H]DA reuptake/DAT binding ([4]; Table 3-1): 618; IC50 ([5]; Reuptake Inhibition [3H]5-HT IC50, Table 3-1, bound given in μM): > 10 µM; IC50 ([6]; Table 3-1): 1.67 ± 0.688 µM
O=C1CN(CCCCOC(c2ccc(F)cc2)c2ccc(F)cc2)CCN1 [Compound 27, 2-Oxo-4-[4-[bis(4-fluorophenyl)methoxy]butyl]piperazine]	–	>2.4	0.4	1.8 ± 0.45 µM	0.6	–	–	–	–	Ki [1, 10]: 4.1 ± 0.79 µM; Ki ([3]; Table 5, bound given in μM): > 10 µM; IC50 [4, 11]: 2.29 ± 0.2 µM; IC50 ([5]; Table 6, read-out: Reuptake Inhibition [3H]5-HT IC50): 5.34 ± 0.95 µM; IC50 ([6]; Table 6, bound given in μM): > 10 µM
Fc1ccc(C(OCCCCN2CCN(c3ccccc3F)CC2)c2ccc(F)cc2)cc1 [Compound 30, 1-(2-Fluorophenyl)-4-[4-[bis(4-fluorophenyl)methoxy]butyl]piperazine]	–	10.8	0.8	–	11.9	–	–	–	–	ED50 [7]: 0.015 mg/kg; mode of action ([7]; Table 8): monophasic; ME/CME, Maximal Effect/Cocaine Maximal Effect ([7]; Table 8): 0.49; effect on spontaneous LMA ([7]; mouse): significant increase; Attenuation of cocaine-induced LMA [8]: failed to attenuate; AD50, dose attenuating cocaine-induced stimulation by 50% [8]: no attenuation
Fc1ccc(C(OCCCCN2CCN(c3ccccc3Cl)CC2)c2ccc(F)cc2)cc1 [Compound 32, 1-(2-Chlorophenyl)-4-[4-[bis(4-fluorophenyl)methoxy]butyl]piperazine]	0.067 ± 0.01 µM	8.1	1.3	0.088 ± 0.029 µM	4.9	0.54 ± 0.18 µM	0.328 ± 0.034 µM	0.119 ± 0.033 µM	0.29 ± 0.11 µM	–
Fc1ccc(C(OCCCCN2CCN(c3cccc(C(F)(F)F)c3)CC2)c2ccc(F)cc2)cc1 [Compound 36, 1-[3-(Trifluoromethyl)phenyl]-4-[4-[bis(4-fluorophenyl)methoxy]butyl]piperazine]	–	6.8	6.8	–	11.7	0.222 ± 0.0097 µM	–	–	–	mode of action ([7]; Table 8): monophasic; ID50, dose producing 1/2 maximal depressant activity (I, inhibition) [7, 15]: 113 mg/kg and 113/I^g mg/kg; effect on spontaneous LMA ([7]; mouse): Significant suppression; AD50, dose attenuating cocaine-induced stimulation by 50% [8]: 18.35 mg/kg; ED50 [9]: 1.1 mg/kg; ME/CME, Maximal Effect/Cocaine Maximal Effect ([9]; Table 9, 8 hours): 0.46; mode of action ([9]; Table 9, ligand alone study, 8 hours): monophasic
CC(=O)c1ccc(N2CCN(CCCCOC(c3ccc(F)cc3)c3ccc(F)cc3)CC2)cc1 [Compound 37, 1-[4-[4-[4-[Bis(4-fluorophenyl)methoxy]butyl]piperazin-1-yl]phenyl]ethanone]	0.027 ± 0.0086 µM	4.1	1.6	0.042 ± 0.016 µM	111.5	0.112 ± 0.038 µM	3.01 ± 0.0086 µM	1.23 ± 0.54 µM	0.033 ± 0.015 µM	–
O=[N+]([O-])c1ccc(N2CCN(CCCCOC(c3ccc(F)cc3)c3ccc(F)cc3)CC2)cc1 [Compound 38, 1-[4-Nitrophenyl]-4-[1-[bis(4-fluorophenyl)methoxy]-4-butyl]piperazine]	0.06 ± 0.019 µM	4.0	2.6	0.154 ± 0.044 µM	39.2	0.239 ± 0.013 µM	2.35 ± 0.54 µM	0.39 ± 0.13 µM	0.23 ± 0.11 µM	–
Fc1ccc(C(OCCCCN2CCN(Cc3ccc4c(c3)OCO4)CC2)c2ccc(F)cc2)cc1 [Compound 41, 1-Benzo[1,3]dioxol-5-ylmethyl-4-[4-[bis(4-fluorophenyl)methoxy]butyl]piperazine]	0.033 ± 0.013 µM	1.7	1.8	0.059 ± 0.022 µM	30.3	0.055 ± 0.018 µM	1 ± 0.06 µM	3.28 ± 0.61 µM	0.043 ± 0.019 µM	–
O=[N+]([O-])c1ccc(S(=O)(=O)N2CCN(CCCCOC(c3ccc(F)cc3)c3ccc(F)cc3)CC2)cc1 [Compound 42, 1-[4-[Bis(4-fluorophenyl)methoxy]butyl]-4-(4-nitrobenzenesulfonyl)piperazine]	–	>13.2	6.5	4.93 ± 0.67 µM	5.5	–	–	–	–	Ki [1, 10]: 0.76 ± 0.22 µM; Ki ([3]; Table 5, bound given in μM): > 10 µM; IC50 [4, 11]: 4.2 ± 1.1 µM; IC50 ([5]; Table 6, bound given in μM, read-out: Reuptake Inhibition [3H]5-HT IC50): > 10 µM; IC50 ([6]; Table 6, bound given in μM): > 10 µM; ED50, dose producing 1/2 maximal stimulant activity (S, stimulation) [7, 15]: no activity; Attenuation of cocaine-induced LMA [8]: failed to attenuate; AD50, dose attenuating cocaine-induced stimulation by 50% [8]: no attenuation
Fc1ccc(C(OCCN2CCN(CCCc3ccccc3)CC2)c2ccc(F)cc2)cc1 [GBR 12909, reference compound]	–	–	–	–	–	–	–	–	–	ED50 [7]: 6.24 mg/kg; ME/CME, Maximal Effect/Cocaine Maximal Effect ([7]; Table 8): 1.22; ED50 [9]: 6.9 mg/kg; ME/CME, Maximal Effect/Cocaine Maximal Effect ([9]; Table 9, 8 hours): 0.73
